Results reported in patent US20250000881A1, “TREATMENT OF TREATMENT RESISTANT […] PSILOCYBIN” (COMPASS […], priority 2021, published 2025).
Converted amounts (≈) assume the structure as drawn. “And” between values parts separate entries of the source, which are not always exact repeats. Equal values may be shown once.

Assays:
[1] = system: participants with TRD from Example 2; assay: Long term follow-up study: time to any depressive event (KM quartiles); type: in vivo, human
Procedure: The following example is a long term follow up of study of a sustained responder population from Example 2. 58 participants from Example 2 were selected for a long term 52 week follow up study. Of the 58 patients, 22 received a 25 mg dose of psilocybin, 19 received a 10 mg dose of psilocybin, and 17 received a 1 mg dose of psilocybin. […] None of the patients in this study received treatment for depression before their week 12 MADRS visit in Example 2. Patients were analyzed for a change in MADRS total score from Baseline to 12, 16, 20, 24, 28, 40, and 52 weeks.
The primary endpoint of this study was to determine the median time to a depressive event after administration of psilocybin. The depressive event includes: • Initiation of new antidepressant treatment (first new antidepressant treatment in time period only); • Hospitalization due to depression/suicidality; • Suicide attempt, prevention of an imminent suicide attempt, or completed suicide; • Increased suicidality measured by worsening on MADRS item 10; • Active suicidal ideation measured by the C-SSRS; • MADRS worsening; and • Discontinuation for adverse event or lack of efficacy.

adult subjects with TRD [2] = assay: Phase 2b trial in TRD: Work and Social Adjustment Scale (WSAS); type: in vivo, human; details: 25 mg vs 1 mg, week 3
Procedure: (§1) Other objectives were to evaluate the effects of psilocybin on quality of life and wellbeing, functioning and associated disability, cognitive function, and anxiety compared to 1 mg psilocybin on: • (a) Quality of life in subject EuroQoL (EQ)-5 dimension-3 level scale (EQ-5D-3L) score change from Baseline to week 3. This will also be assessed at week 12. This assessment was not mandatory. • (b) Quality of life in caregiver EQ-5D-3L score change from Baseline to week 3. This was assessed at week 12. • (c) Functioning and associated disability in the Sheehan Disability Scale (SDS) score change from Baseline to week 3. This was also assessed at week 12. • (d) Cognitive function as measured by the Digit Symbol Substitution Test (DSST) score change from baseline to week 3. This was assessed at day 1 and week 12. • (e) Level of anxiety as measured using the change in Generalised Anxiety Disorder 7 item Scale (GAD-7) total score change from baseline to week 3. This was assessed at week 12. • (f) Subject determined level of depression as measured using the change in Quick Inventory of Depressive Symptomatology Self-Rated (QIDS-SR-16) total score from Baseline to week 3. […] This was assessed at week 12. • (h) To evaluate the impact of different psilocybin doses on real life functional activity estimated from passive data streams collected on a mobile app on subjects' mobile phones. […]

adult subjects with TRD [3] = assay: Phase 2b trial in TRD: Generalised Anxiety Disorder-7 item scale (GAD-7); type: in vivo, human; details: 25 mg vs 1 mg group, week 3
Procedure: as §1

adult subjects with TRD [4] = assay: Phase 2b trial in TRD: EQ-5D-3L and EuroQoL Visual Analogue Scale quality of life; type: in vivo, human; details: 25 mg vs 1 mg, week 3
Procedure: as §1

adult subjects with TRD [5] = assay: Phase 2b trial in TRD: Positive and Negative Affect Schedule (PANAS); type: in vivo, human; details: 25 mg vs 1 mg group, week 3
Procedure: as §1

adult subjects with TRD [6] = assay: Phase 2b trial in TRD: QIDS-SR-16 self-reported depression; type: in vivo, human; details: 25 mg vs 1 mg group, week 3
Procedure: as §1

adult subjects with TRD [7] = assay: Phase 2b trial in TRD: participants starting new treatment for depression; type: in vivo, human
Procedure: All subjects were asked to remain off their antidepressant medications for at least 3 weeks following the psilocybin session until the primary endpoint assessment, or longer. Rescue medications were allowed and described in the Rescue Medications section below. Subjects who restarted their antidepressant medications during the first 3 weeks after the psilocybin treatment administration were assessed for reasons of resuming their medications and followed until 12 weeks post-psilocybin administration.

Structure (SMILES): CN(C)CCc1c[nH]c2cccc(OP(=O)(O)O)c12 [COMP360, psilocybin]
- Time to any depressive event, KM Q1, estimate (95% CI) ([1]; 1 mg (N = 17)): 6.0 (2.0, 14.0) days
- Time to any depressive event, KM Q2 (median), estimate (95% CI) ([1]; 1 mg (N = 17)): 21 days and 21.0 (3.0, 78.0) days
- Time to any depressive event, KM Q3, estimate (95% CI) ([1]; 1 mg (N = 17)): 78.0 (21.0, —) days
- Time to any depressive event, KM Q1, estimate (95% CI) ([1]; 10 mg (N = 19)): 19.0 (2.0, 41.0) days
- Time to any depressive event, KM Q2 (median), estimate (95% CI) ([1]; 10 mg (N = 19)): 43 days and 43.0 (19.0, 142.0) days
- Time to any depressive event, KM Q1, estimate (95% CI) ([1]; 25 mg (N = 22)): 24.0 (2.0, 132.0) days
- WSAS treatment difference (adult subjects with TRD [2]): −5.11
- GAD-7 total score, least squares mean (95% confidence intervals) treatment difference (adult subjects with TRD [3]): −1.79 (−3.35, −0.23)
- EQ-5D-3L total score, least squares mean treatment difference (adult subjects with TRD [4]): 0.06
- EuroQoL Visual Analogue Scale treatment difference (adult subjects with TRD [4]): 6.77
- PANAS negative affect, least squares mean (95% confidence intervals) treatment difference (adult subjects with TRD [5]): −3.18 (−5.59, −0.77)
- PANAS positive affect, least squares mean (95% confidence intervals) treatment difference (adult subjects with TRD [5]): 6.17 (3.53, 8.82)
- QIDS-SR-16 total score, least squares mean treatment difference (95% confidence intervals) (adult subjects with TRD [6]): −2.78 (−4.62, −0.95)
- solubility (Solubility in water): ~15 mg/mL (≈ 52.8 mM)
- Participants started new treatment for depression (adult subjects with TRD [7]; 1 mg (N = 79), Day 2): 0 n
- Participants started new treatment for depression (adult subjects with TRD [7]; 10 mg (N = 75), Day 2): 0 n
- Participants started new treatment for depression (adult subjects with TRD [7]; 25 mg (N = 79), Day 2): 0 n
- Participants started new treatment for depression (adult subjects with TRD [7]; 25 mg (N = 79), Week 1): 0 n
- Participants started new treatment for depression (adult subjects with TRD [7]; Overall (N = 233), Day 2): 0 n
